# Values quoted from earlier work as cited in US20040092565A1, “Composition and method of sustaining chemotherapeutic effect while reducing dose of chemotherapeutic agent using cox-2 inhibitor and statin” (priority 2001, published 2004).
# Read-outs that look alike come from different tables or passages of the source.
# Tests used:
# prostate cancer specimen = settings: mice, in vivo
# [1] = system: cisplatin-induced side effects; settings: 5 g of glutathione immediately before cisplatin
# [2] = system: Prostate Cancer Cell Line LNCaP; settings: literature reports on LNCaP and human prostate carcinoma cells
# [3] = package insert
smiles,measurement,setting,value
CS(=O)(=O)Nc1ccc([N+](=O)[O-])cc1OC1CCCCC1 [NS398],angiogenesis of prostate cancer specimen,prostate cancer specimen,inhibit angiogenesis
"N[C@@H](CCC(=O)N[C@@H](CS)C(=O)NCC(=O)O)C(=O)O [glutathione, gamma-Glu-Cys-Gly]",intensity of hematologic toxicity,[1]; compared with control group,significantly less pronounced
same,overall survival,"[1]; vs. 10.5 months in the other group, no statistical difference",13.5 months
CC[C@H](C)C(=O)O[C@H]1C[C@@H](C)C=C2C=C[C@H](C)[C@H](CC[C@@H]3C[C@@H](O)CC(=O)O3)[C@H]21 [lovastatin],therapeutic value in prostate cancer,[2],had therapeutic value in treating prostate cancer
CS(=O)(=O)c1ccc(C2=C(c3ccccc3)C(=O)OC2)cc1 [rofecoxib],time to maximum plasma concentration,[3]; for some persons,2 to 9 h
same,time to maximum plasma concentration,[3]; on average,2 to 3 h
